Laboratory results reported in ChEMBL document CHEMBL3352681, “A cyclic GB virus C derived peptide with anti-HIV-1 activity targets the fusion peptide of HIV-1” (Eur J Med Chem, 2014).
Activity calls are given as the source filed them. The rule behind the calls is not given here. Peptide text beside a SMILES is read from it.

What was measured:
[1] = test system: Human immunodeficiency virus 1; test: Binding affinity to HIV1 fusion protein in POPG vesicles assessed as induction of conformational changes infusion secondary structure by CD spectroscopy
[2] = test system: Human immunodeficiency virus 1; test: Binding affinity to HIV1 fusion protein in PLGA nanoparticles assessed as protein-protein interactions by STD-NMR spectroscopy
HeLa [3] = test: Inhibition of HIV1 fusion protein assessed as inhibition of syncytium formation between HeLa cells expressing HIV-1 envelope protein and TZM-bl cells expressing human CD4 receptor; assay type: cell-based; conditions: Human immunodeficiency virus 1
[4] = test system: Human immunodeficiency virus 1; test: Antiviral activity against HIV1 NL4-3 infected in TZM-bl cells assessed as inhibition of viral replication; assay type: functional, organism-based
[5] = test system: Human immunodeficiency virus 1; test: Binding affinity to HIV1 fusion protein in DPPG lipid monolayers at 5% by compression isotherms analysis
[6] = test system: Human immunodeficiency virus 1; test: Binding affinity to NBD-labeled HIV1 fusion protein in POPG LUVs at 0.0125 to 0.4 uM using Rho-labeled compound by FRET assay
[7] = Toxicity against rabbit RBCs assessed as induction of hemolysis after 60 mins; assay type: cell-based, Oryctolagus cuniculus; conditions: erythrocyte, 1 h
HeLa [8] = test: Inhibition of HIV1 fusion protein assessed as inhibition of syncytium formation between HeLa cells expressing HIV-1 envelope protein and TZM-bl cells expressing human CCR5 receptor; assay type: cell-based; conditions: Human immunodeficiency virus 1
HeLa [9] = test: Inhibition of HIV1 fusion protein assessed as inhibition of syncytium formation between HeLa cells expressing HIV-1 envelope protein and TZM-bl cells expressing human CXCR4 receptor; assay type: cell-based; conditions: Human immunodeficiency virus 1
[10] = test system: Human immunodeficiency virus 1; test: Binding affinity to biotin-labeled HIV1 fusion protein using 5 uM compound immobilized on microtiter plates by ELISA method
[11] = test system: Human immunodeficiency virus 1; test: Inhibition of fusogenic capacity of HIV1 fusion protein in rabbit RBCs assessed as reduction in fusion protein-induced hemolsysis at 1 to 100 uM after 60 mins
[12] = test system: Human immunodeficiency virus 1; test: Binding affinity to HIV1 fusion protein in DPPG lipid monolayers assessed as reduction in fusion protein-induced lipid layer phase transition at 5% by fluorescence microscopy
[13] = test system: Human immunodeficiency virus 1; test: Inhibition of fusogenic capacity of HIV1 fusion protein in rabbit RBCs assessed as reduction in fusion protein-induced hemolsysis at 10 to 1000 uM after 60 mins
[14] = test system: Human immunodeficiency virus 1; test: Inhibition of biotin-labeled HIV1 fusion protein binding to immobilized E1P8cyc peptide by ELISA method
[15] = test system: Human immunodeficiency virus 1; test: Inhibition of fusogenic capacity of HIV1 fusion protein in POPG LUVs assessed as reduction in fusion protein-induced vesicular permeabilization process at compound/fusion protein ratio of 20 by ANTS/DPX assay
[16] = target: T1, Melittin (Apis mellifera) (UniProt P01501); test: Binding affinity to bee venom melittin in POPG LUVs assessed as reduction in melittin-induced vesicular permeabilization process at compound/melittin ratio of 10 by ANTS/DPX assay
T1 sequence (whole entry): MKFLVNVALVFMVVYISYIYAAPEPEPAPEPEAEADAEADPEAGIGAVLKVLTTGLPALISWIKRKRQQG

Murine leukemia virus = test: Binding affinity to NBD-labeled MLV fusion protein in POPG LUVs at 0.0125 to 0.4 uM using Rho-labeled compound by FRET assay
[17] = test system: Human immunodeficiency virus 1; test: Binding affinity to biotin-labeled HIV1 fusion protein using compound immobilized on microtiter plates by ELISA method
[18] = test system: Human immunodeficiency virus 1; test: Binding affinity to [W8]HIV1 fusion protein assessed as mole fraction partition coefficients in POPG liposomes by fluorescence assay; conditions: Microsome
[19] = test system: Human immunodeficiency virus 1; test: Antiviral activity against HIV1 NL4-3 in cell based assay; assay type: functional, organism-based; conditions: Human immunodeficiency virus 1, NL4-3

With H-LEAIPCSIPPEFLFGKPFVF-OH the Activity [1] was “Active”, the Activity [2] was “inactive” and the inhibition (HeLa [3]) was “Active”. The Activity [4] was “Active”, the Activity [5] was “Active” and the Activity [6] was “Active”. The Activity [7] was “Non-toxic”, the inhibition (HeLa [8]) was “Active” and the inhibition (HeLa [9]) was “Active”. For the same compound, the Activity [10] was “Active”, the inhibition [11] was “Active” and the Activity [12] was “Active”.

With H-SGVLTVGVALTRRVYPVP-OH the Activity [1] was “inactive”, the inhibition [13] was “inactive” and the inhibition (HeLa [3]) was “inactive”. For the same compound, the Activity [14] was “inactive”, the Activity [4] was “inactive” and the inhibition (HeLa [8]) was “inactive”. The inhibition (HeLa [9]) was “inactive”, the inhibition [15] was “inactive” and the Activity [10] was “inactive”.

For `CC[C@H](C)[C@H](NC(=O)[C@H](CC(=O)O)NC(=O)[C@H](CCC(=O)O)NC(=O)[C@@H]1CCCN1C(=O)[C@H](C)N)C(=O)NCC(=O)N[C@@H](Cc1ccccc1)C(=O)N[C@H]1CSSC[C@@H](C(=O)N[C@@H](CC(C)C)C(=O)N[C@H](C(=O)N[C@@H](C)C(=O)N[C@@H](CC(C)C)C(=O)NCC(=O)O)C(C)C)NC(=O)CNC(=O)CNC(=O)[C@H](CCC(=O)O)NC(=O)[C@H](CC(C)C)NC1=O` (HELM PEPTIDE1{A.P.E.D.I.G.F.C.L.E.G.G.C.L.V.A.L.G}$PEPTIDE1,PEPTIDE1,8:R3-13:R3$$$V2.0), the Activity [16] was “inactive”, the Activity [1] was “Active” and the Activity (Murine leukemia virus) was “inactive”. For the same compound, the Activity [17] was “Dose-dependent effect”, the Activity [2] was “Active” and the Activity [14] was “Active”. For the same compound, the Activity [5] was “Active”, the Activity [6] was “Active” and the Activity [7] was “Non-toxic”. It also gave an Imax [15] of 40%, a K (mole fraction) [18] of 580000 and an IC50 [19] of 7.8 µM. The Activity [10] was “Active”, the inhibition [11] was “Dose-dependent effect” and the Activity [12] was “Active”.

With `CC[C@H](C)[C@H](NC(=O)[C@H](CC(=O)O)NC(=O)[C@H](CCC(=O)O)NC(=O)[C@@H]1CCCN1C(=O)[C@H](C)N)C(=O)NCC(=O)N[C@@H](Cc1ccccc1)C(=O)N[C@@H](CS)C(=O)N[C@@H](CC(C)C)C(=O)N[C@@H](CCC(=O)O)C(=O)NCC(=O)NCC(=O)N[C@@H](CS)C(=O)N[C@@H](CC(C)C)C(=O)N[C@H](C(=O)N[C@@H](C)C(=O)N[C@@H](CC(C)C)C(=O)NCC(=O)O)C(C)C` (H-APEDIGFCLEGGCLVALG-OH) the Activity [1] was “Active”, the inhibition [13] was “Active” and the Activity [2] was “inactive”. For the same compound, the inhibition [15] was “Active”, the K (mole fraction) [18] was 730000 and the Activity [10] was “inactive”.
